Experimental data from paper PMC9643456, “Matching amino acids membrane preference profile to improve activity of antimicrobial peptides” (Communications Biology, 2022).
In brackets after ≈: the same amount, converted by molar mass. Square brackets hold non-standard residues; d marks the D form. Ends that are not written are not given here. Peptide text beside a SMILES is read from it.

Assays:
[1] = system: MDR P. aeruginosa; experiment: microbe, parasite or virus in culture; details: CLSI broth microdilution; CAMHB with 50 mg/L Ca2+, 10 mg/L Mg2+; 5 × 10^5 CFU/ml; 18 h 37 °C; no visible turbidity; triplicate; strain CCARM 2180
Source text: (§1) MDR Pseudomonas aeruginosa (CCARM 2180) was purchased from the Culture Collection of Antimicrobial Resistance Microbes (Seoul, Republic of Korea). MDR Acinetobacter baumannii (ATCC BAA-1605) and MDR Enterococcus faecalis (ATCC 51575) were purchased from the American Type Culture Collection (Manassas, VA, USA). MDR Staphylococcus aureus (KCCM 40510) was purchased from the Korean Culture Center of Microorganisms (Seoul, Republic of Korea). S. aureus (KCTC 1621) was purchased from the Korean Collection for Type Cultures. A. baumannii (KCCM 40203) was purchased from the Korean Culture Center of Microorganisms (Seoul, Republic of Korea).
(§2) To assess antimicrobial activity, the MIC50 and MIC90 were measured using broth microdilution following CLSI guidelines. […] Each experiment was performed in triplicate. Meropenem (Sigma, Darmstadt, Germany) and colistin were used as control antibiotics. Cation-adjusted Mueller–Hinton broth (CAMHB) (Becton, Dickinson and Company, Franklin Lakes, USA) with supplied calcium (50 mg/L) and magnesium (10 mg/L) was used for the CLSI-test condition. Bacteria in midlog phase and peptides were separately diluted in CAMHB. The bacteria and peptide solutions were then mixed in 96-well polyethylene plates (SPL, Gyeonggi-do, Korea) and incubated for 18 h at 37 °C. The final concentration for bacteria was 5 × 10^5 CFU/ml. […] The MIC was defined to be the lowest concentration of peptide without visible turbidity by comparing with control antibiotics with the unaided eye. […] Each experiment was performed in triplicate. MICs in albumin and acetic acid solutions were measured using the same protocol but with 0.2% bovine serum albumin (Bovogen, Keilor, Australia), 0.01% acetic acid (Merck, New Jersey, USA), and CAMHB with both calcium and magnesium. In addition, MICs used in the antibiotic resistance acquisition test, the outer–inner membrane permeation test, and the transmembrane potential test and for FE-SEM were individually determined. The final bacterial concentrations used were as follows: for resistance acquisition, optical density (OD) 0.01; for outer–inner membrane permeability assays (LB), OD 0.1; for the transmembrane potential test, 1 × 10^8 CFU/ml (OD 0.171); […]. Inhibitory activity unidentifiable by direct observation was determined by counting the CFUs. Each experiment was performed at least twice.

[2] = system: human red blood cells; experiment: Hemolytic activity; assay type: cell-based; details: red cells of human, 18 h
Description: Human red blood cells (Zenbio, North Carolina, USA) and peptides were separately diluted in PBS (blood concentration, 8%). The blood cell and peptide solutions were then mixed in 96-well polyethylene plates (SPL, Gyeonggi-do, Korea) and incubated for 18 h at 37 °C. The final concentration of human red blood cells was 4%, while peptide concentrations were 100 μM, 50 μM, 25 μM, 12.5 μM, 6.25 μM, 3.13 μM, 1.56 μM, and 0.78 μM. After incubation, the plates were centrifuged at 1000 × g for 5 min, and the supernatants were transferred to 96-well polyethylene plates. Hemolysis levels were determined by measuring the absorbance at 540 nm with a SpectraMax plate spectrophotometer (Molecular Devices, California, USA). Control samples were treated with 1% Triton X-100 (for 100% hemolysis) or solution with 0 μM peptide (for 0% hemolysis) and melittin (for positive control). Each experiment was performed in triplicate.

[3] = system: MDR A. baumannii; experiment: microbe, parasite or virus in culture; details: CLSI broth microdilution; CAMHB with 50 mg/L Ca2+, 10 mg/L Mg2+; 5 × 10^5 CFU/ml; 18 h 37 °C; triplicate; strain ATCC BAA-1605
Source text: as §1, §2

[4] = system: MDR S. aureus; experiment: microbe, parasite or virus in culture; details: CLSI broth microdilution; CAMHB with 50 mg/L Ca2+, 10 mg/L Mg2+; 5 × 10^5 CFU/ml; 18 h 37 °C; triplicate; strain KCCM 40510
Source text: as §1, §2

[5] = system: MDR E. faecalis; experiment: microbe, parasite or virus in culture; details: CLSI broth microdilution; CAMHB with 50 mg/L Ca2+, 10 mg/L Mg2+; 5 × 10^5 CFU/ml; 18 h 37 °C; triplicate; strain ATCC 51575
Source text: as §1, §2

WLLWIALRKKR-NH2 [WCopW1]
Minimum inhibitory concentrations, MDR P. aeruginosa [1]: > 20 µM | Hemolysis percent, 25 μM [2]: 7.03% | Hemolysis percent, 50 μM [2]: 10.46% | Hemolysis percent, 100 μM [2]: 19.40%

CC[C@@H](C)[C@@H](NC(=O)[C@@H](Cc1c[nH]c2ccccc12)NC(=O)[C@H](NC(=O)[C@@H](CC(C)C)NC(=O)[C@@H](Cc1c[nH]c2ccccc12)NC(=O)[C@H](N)CCCCN)C(C)C)C(=O)N[C@H](Cc1c[nH]c2ccccc12)C(=O)N[C@H](CCCNC(=N)N)C(=O)N[C@H](CCCNC(=N)N)C(=O)N[C@H](CCCNC(=N)N)C(N)=O [WCopW35] (H-[dK][dW][dL][dV][dW][dI][dW][dR][dR][dR]-NH2)
Minimum inhibitory concentrations, MDR A. baumannii [3]: 0.63 µM (≈ 0.944 µg/mL) | Minimum inhibitory concentrations, MDR S. aureus [4]: 0.63 µM (≈ 0.944 µg/mL) | Minimum inhibitory concentrations, MDR P. aeruginosa [1]: 2.5 µM (≈ 3.74 µg/mL) | Hemolysis percent, 25 μM [2]: 1.18 ±0.34% | Hemolysis percent, 50 μM [2]: 2.71 ±0.63% | Hemolysis percent, 100 μM [2]: 6.07 ±1.01%

CC[C@@H](C)[C@@H](NC(=O)[C@@H](Cc1c[nH]c2ccccc12)NC(=O)[C@@H](CC(C)C)NC(=O)[C@H](N)Cc1c[nH]c2ccccc12)C(=O)N[C@H](Cc1c[nH]c2ccccc12)C(=O)N[C@H](CCCNC(=N)N)C(=O)N[C@H](CCCNC(=N)N)C(=O)N[C@H](CCCNC(=N)N)C(N)=O [WCopW41] (H-[dW][dL][dW][dI][dW][dR][dR][dR]-NH2)
Minimum inhibitory concentrations, MDR A. baumannii [3]: 2.5 µM (≈ 3.18 µg/mL) | Minimum inhibitory concentrations, MDR E. faecalis [5]: 1.25 µM (≈ 1.59 µg/mL) | Hemolysis percent, 25 μM [2]: 0.01 ±0.01% | Hemolysis percent, 50 μM [2]: 0.04 ± 0.02% | Hemolysis percent, 100 μM [2]: 0.42 ±0.06%

CC[C@@H](C)[C@@H](NC(=O)[C@H](N)Cc1c[nH]c2ccccc12)C(=O)N[C@@H](C(=O)N[C@H](Cc1c[nH]c2ccccc12)C(=O)N[C@@H](C(=O)N[C@H](Cc1c[nH]c2ccccc12)C(=O)N[C@H](CCCNC(=N)N)C(=O)N[C@H](CCCNC(=N)N)C(=O)N[C@H](CCCNC(=N)N)C(N)=O)[C@H](C)CC)[C@H](C)CC [WCopW61] (H-[dW][dI][dI][dW][dI][dW][dR][dR][dR]-NH2)
Minimum inhibitory concentrations, MDR A. baumannii [3]: 1.25 µM (≈ 1.73 µg/mL) | Minimum inhibitory concentrations, MDR S. aureus [4]: 0.63 µM (≈ 0.872 µg/mL) | Minimum inhibitory concentrations, MDR P. aeruginosa [1]: 5 µM (≈ 6.92 µg/mL) | Hemolysis percent, 25 μM [2]: 6.90 ± 0.03% | Hemolysis percent, 50 μM [2]: 8.91 ± 0.75% | Hemolysis percent, 100 μM [2]: 11.6 ±0.99%

CC[C@@H](C)[C@@H](NC(=O)[C@@H](Cc1c[nH]c2ccccc12)NC(=O)[C@@H](CCCNC(=N)N)NC(=O)[C@H](N)CCCNC(=N)N)C(=O)N[C@H](Cc1c[nH]c2ccccc12)C(=O)N[C@@H](C(=O)N[C@@H](C(=O)N[C@H](Cc1c[nH]c2ccccc12)C(=O)N[C@H](CCCNC(=N)N)C(N)=O)[C@H](C)CC)C(C)C [WCopW54] (H-[dR][dR][dW][dI][dW][dV][dI][dW][dR]-NH2)
Minimum inhibitory concentrations, MDR A. baumannii [3]: 0.63 µM (≈ 0.863 µg/mL) | Minimum inhibitory concentrations, MDR S. aureus [4]: 0.63 µM (≈ 0.863 µg/mL) | Minimum inhibitory concentrations, MDR P. aeruginosa [1]: 2.5 µM (≈ 3.42 µg/mL) | Hemolysis percent, 25 μM [2]: 8.38 ± 1.14% | Hemolysis percent, 50 μM [2]: 11.43 ± 2.42% | Hemolysis percent, 100 μM [2]: 35.13 ± 4.13%

CC[C@@H](C)[C@@H](NC(=O)[C@@H](Cc1c[nH]c2ccccc12)NC(=O)[C@@H](CCCNC(=N)N)NC(=O)[C@@H](CCCNC(=N)N)NC(=O)[C@H](N)CCCNC(=N)N)C(=O)N[C@H](Cc1c[nH]c2ccccc12)C(=O)N[C@@H](C(=O)N[C@@H](C(=O)N[C@H](Cc1c[nH]c2ccccc12)C(N)=O)[C@H](C)CC)[C@H](C)CC [WCopW60] (H-[dR][dR][dR][dW][dI][dW][dI][dI][dW]-NH2)
Minimum inhibitory concentrations, MDR A. baumannii [3]: 1.25 µM (≈ 1.73 µg/mL) | Minimum inhibitory concentrations, MDR S. aureus [4]: 0.63 µM (≈ 0.872 µg/mL) | Minimum inhibitory concentrations, MDR P. aeruginosa [1]: 5 µM (≈ 6.92 µg/mL) | Hemolysis percent, 25 μM [2]: 15.51 ± 0.64% | Hemolysis percent, 50 μM [2]: 15.14 ± 3.22% | Hemolysis percent, 100 μM [2]: 15.17 ± 0.19%
